Assays:
[1] = test system: E. coli transformed with IPTG-inducible antisense clones; experiment: Cell-based assay using antisense to genes encoding ribosomal proteins (Example 9)
Source text: First, pLex5BA (Krause et al., J. Mol. Biol. 274: 365 (1997), the disclosure of which is incorporated herein by reference in its entirety) vectors containing antisense constructs to either rplW or to elaD were introduced into separate E. coli cell populations. Vector introduction is a technique well known to those of ordinary skill in the art. The vectors of this example contain IPTG inducible promoters that drive the transcription of the antisense RNA in the presence of the inducer. However, those skilled in the art will appreciate that other inducible promoters may also be used. Suitable vectors are also well known in the art. Antisense clones to genes encoding different ribosomal proteins or to genes encoding proteins that are not involved in protein synthesis were utilized to test the effect of antisense transcription on cell sensitivity to the antibiotics known to bind to ribosomal proteins and inhibit protein synthesis. Antisense nucleic acids comprising a nucleotide sequence complementarty to the elaD, atpB&atpE, visC and yohH genes are referred to as AS-elaD, AS-atpB/E, AS-visC, AS-yohH respectively. These genes are not known to be involved in protein synthesis. […]
The cell populations containing vectors producing AS-elaD or AS-rplW were exposed to a range of IPTG concentrations in liquid medium to obtain the growth inhibitory dose curve for each clone (FIG. 1). First, seed cultures were grown to a particular turbidity measured by the optical density (OD) of the growth solution. […] The cells were grown for up to 15 hours and the extent of growth was determined by measuring the optical density of the cultures at 600 nm. […]
An example of a tetracycline dose response curve is shown in FIGS. 2A and 2B for the rplW and elaD genes, respectively. Cells were grown to log phase and then diluted into medium alone or medium containing IPTG at concentrations which give 20% and 50% growth inhibition as determined by IPTG dose response curves. […] The 96 well plates were incubated at 37° C. and the OD600 was read by a plate reader every 5 minutes for up to 15 hours. […]

[2] = test system: Staphylococcus aureus RN4220; experiment: Inhibition of proliferation after xylose induction of antisense expression (Example 1); type: cell-based; settings: 2% xylose
Source text: In the case of Staphylococcus aureus, a novel inducible promoter system, XylT5, comprising a modified T5 promoter fused to the xylO operater from the xyla promoter of Staphylococcus aureus was used. The promoter is described in U.S. Provisional Patent Application Ser. No. 60/259,434, the disclosure of which is incorporated herein by reference in its entirety. Transcription from this hybrid promoter is inducible by xylose.
In the case of Staphylococcus aureus, a shotgun library of Staphylococcus aureus genomic fragments was cloned into the vector pXyIT5-P15a, which harbors the Xy1T5 inducible promoter. […]
The purified library was then transformed into electrocompetent Staphylococcus aureus RN4220. […] Gridded plates were incubated 16 hours at 37° C., and then manually scored for arrayed colonies that were growth-compromised in the presence of xylose.
Arrayed colonies that were growth-sensitive on medium containing 2% xylose, yet were able to grow on similar medium lacking xylose, were subjected to further growth sensitivity analysis as follows: Colonies from the plate lacking xylose were manually picked and inoculated into individual wells of a 96 well culture dish containing LBG+CM15, and were incubated for 16 hours at 37° C. […] Clones that grew similarly at all dilutions on both media were scored as a negative and were no longer considered.

For `CC[C@H]1OC(=O)[C@H](C)[C@@H](O[C@H]2C[C@@](C)(OC)[C@@H](O)[C@H](C)O2)[C@H](C)[C@@H](O[C@@H]2O[C@H](C)C[C@H](N(C)C)[C@H]2O)[C@](C)(O)C[C@@H](C)C(=O)[C@H](C)[C@@H](O)[C@]1(C)O` [Erythromycin], the “sensitivity of cells transcribing antisense to genes not involved in protein synthesis” value ([1]; AS-atpB/E, AS-visC, AS-elaD, AS-yohH) was “do not” and the “sensitivity of cells transcribing antisense to protein synthesis genes” value ([1]; AS-rplL, AS-rplW, clones to L7/L12, L10, L22, L18, rRNA, Elongation Factor G, with vs without IPTG) was “increased sensitivity”.

With `CCn1cc(C(=O)O)c(=O)c2ccc(C)nc21` [Nalidixic acid] the “sensitivity of the clone transcribing antisense to rplL and rplJ (AS-rplL/J)” value ([1]; antibiotics which do not inhibit protein synthesis) was “does not show increased sensitivity”.

B1: S1M10000001A05: clone containing the nucleic acid which inhibits Staphylococcus aureus proliferation (nucleic acid, listed as Staphylococcus aureus)
DNA: GATCATATAGAATGACATCCGCTTCACGTATTAAACGCTCAGCCTTTTTCGTCAAATAATTCGGATTACCTGGACCCGCACCTATCAAGTAAACCTTGCCATATTCCTCTACAGACATATATATACGTTCCCGTCTGTAACTTCTACCTCATAAACATCTACACAACCTTCATCAGGTTCTTGAACAATACCTGTATTTAAATCAATTTTTT
In the case of B1, the “growth sensitivity upon induction of antisense transcription” value [2] is reported as “inhibits Staphylococcus aureus proliferation”.
